Data on 15 compounds can be found in US10689367B2, “Triazole pyridyl compounds as agonists of the APJ receptor” (AMGEN INC., priority 2016, dated 2020).

By EC50 is commonly meant the concentration that produces a half-maximal response.

Sequence of human APJ receptor (P35414 whole entry): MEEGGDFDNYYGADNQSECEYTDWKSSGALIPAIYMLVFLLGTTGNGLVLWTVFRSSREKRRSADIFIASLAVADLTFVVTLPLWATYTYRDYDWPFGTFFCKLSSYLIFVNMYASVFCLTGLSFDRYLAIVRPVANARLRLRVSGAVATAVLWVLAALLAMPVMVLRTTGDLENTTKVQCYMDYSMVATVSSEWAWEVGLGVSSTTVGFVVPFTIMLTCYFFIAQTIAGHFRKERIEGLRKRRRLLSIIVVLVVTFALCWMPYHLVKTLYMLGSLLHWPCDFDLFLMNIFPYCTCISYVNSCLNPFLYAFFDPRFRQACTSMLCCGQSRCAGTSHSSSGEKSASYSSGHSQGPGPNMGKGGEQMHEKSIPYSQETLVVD

The target in this experiment is human APJ receptor (Homo sapiens (Human), UniProt P35414). The experiment can be described thus: [35S]GTPγS binding assay on membranes from CHO cells stably expressing human APJ receptor. Format: biochemical. As to conditions: membranes of CHO cells stably expressing human APJ receptor, read-out: Activity hAPJ SPA EC50 IP. The procedure, abridged:
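[35S]GTPγS binding measured on membranes from CHO cells stably expressing FLAG-tagged human APJ, with GDP, MgCl2 and NaCl levels optimized beforehand. Incubation 90 min at RT, imager read-out; EC50 from non-linear regression, averaged over several independent experiments.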
(GTPγS resists hydrolysis and so accumulates on activated G proteins.)
For `COCC1(n2c(NS(=O)(=O)[C@@H](C)[C@@H](OC(C)C)c3ncc(C)cn3)nnc2-c2cccnc2)CC1` [Example 62.0], the EC50 is 27 nM.

On to `COc1cccc(-c2nnc(NS(=O)(=O)[C@@H](C)[C@H](OC)c3ncc(Cl)cn3)n2C2CC2(F)F)n1` (mixture of isomers) [Example 156.0, (1R,2S)-1-(5-Chloropyrimidin-2-yl)-N-(4-((S)-2,2-difluorocyclopropyl)-5-(6-methoxypyridin-2-yl)-4H-1,2,4-triazol-3-yl)-1-methoxypropane-2-sulfonamide and (1R,2S)-1-(5-chloropyrimidin-2-yl)-N-(4-((R)-2,2-difluorocyclopropyl)-5-(6-methoxypyridin-2-yl)-4H-1,2,4-triazol-3-yl)-1-methoxypropane-2-sulfonamide], for which the 50% effective concentration (EC50) is 37 nM.

Regarding `CCc1noc(C)c1Cn1c(NS(=O)(=O)[C@@H](C)[C@H](OC)c2cnc(C)cn2)nnc1-c1cccc(OC)n1` [Example 195.0, (1R,2S)-N-(4-((3-ethyl-5-methylisoxazol-4-yl)methyl)-5-(6-methoxypyridin-2-yl)-4H-1,2,4-triazol-3-yl)-1-methoxy-1-(5-methylpyrazin-2-yl)propane-2-sulfonamide], the EC50 amounted to 650 nM.

Turning to `COc1cccc(-c2nnc(NS(=O)(=O)[C@@H](C)[C@@H](OC(C)C)c3ncc(C)cn3)n2[C@@H](C)c2ncn(C)n2)n1` (single isomer, unassigned) [Example 234.0, (1S,2S)-N-(5-(6-methoxy-2-pyridinyl)-4-((1R)-1-(1-methyl-1H-1,2,4-triazol-3-yl)ethyl)-4H-1,2,4-triazol-3-yl)-1-(5-methyl-2-pyrimidinyl)-1-(2-propanyloxy)-2-propanesulfonamide or (1S,2S)-N-(5-(6-methoxy-2-pyridinyl)-4-((1S)-1-(1-methyl-1H-1,2,4-triazol-3-yl)ethyl)-4H-1,2,4-triazol-3-yl)-1-(5-methyl-2-pyrimidinyl)-1-(2-propanyloxy)-2-propanesulfonamide], the EC50 worked out at 84 nM.

Take `COc1cccc(-c2nnc(NS(=O)(=O)[C@@H](C)[C@H](OC)c3ncc(Cl)cn3)n2C2CC3(COC3)C2)n1` [Example 7.0, (1R,2S)-1-(5-chloro-2-pyrimidinyl)-1-methoxy-N-(5-(6-methoxy-2-pyridinyl)-4-(2-oxaspiro[3.3]hept-6-yl)-4H-1,2,4-triazol-3-yl)-2-propanesulfonamide]: the concentration for a half-maximal effect (EC50) was determined as 240 nM.

Consider `COCCn1c(NS(=O)(=O)[C@@H](C)[C@@H](OC(C)C)c2ncc(Cl)cn2)nnc1-c1ccccn1` [Example 23.0, (1S,2S)-1-(5-chloro-2-pyrimidinyl)-N-(4-(2-methoxyethyl)-5-(2-pyridinyl)-4H-1,2,4-triazol-3-yl)-1-(2-propanyloxy)-2-propanesulfonamide], for which the 50% effective concentration (EC50) was found to be 15 nM.

For `COc1cccc(-c2nnc(NS(=O)(=O)[C@@H](C)[C@H](OC)c3ncc(Cl)cn3)n2[C@@H]2CC[C@H]2OC)n1` (single isomer, unassigned) [Example 161.0, (1R,2S)-1-(5-Chloropyrimidin-2-yl)-1-methoxy-N-(4-((1R,2R)-2-methoxycyclobutyl)-5-(6-methoxypyridin-2-yl)-4H-1,2,4-triazol-3-yl)propane-2-sulfonamide or (1R,2S)-1-(5-chloropyrimidin-2-yl)-1-methoxy-N-(4-((1S,2S)-2-methoxycyclobutyl)-5-(6-methoxypyridin-2-yl)-4H-1,2,4-triazol-3-yl)propane-2-sulfonamide], the concentration for a half-maximal effect (EC50) stood at 2.2 nM.

As to `CC[C@@H](c1conc1C)n1c(NS(=O)(=O)[C@@H](C)[C@H](C)c2ncc(Cl)cn2)nnc1-c1cccc(OC)n1` (single isomer, unassigned) [Example 231.0, (2S,3R)-3-(5-chloro-2-pyrimidinyl)-N-(5-(6-methoxy-2-pyridinyl)-4-((1S)-1-(3-methyl-1,2-oxazol-4-yl)propyl)-4H-1,2,4-triazol-3-yl)-2-butanesulfonamide or (2S,3R)-3-(5-chloro-2-pyrimidinyl)-N-(5-(6-methoxy-2-pyridinyl)-4-((1R)-1-(3-methyl-1,2-oxazol-4-yl)propyl)-4H-1,2,4-triazol-3-yl)-2-butanesulfonamide], the EC50 came to 21 nM.

As for `COc1cccc(-c2nnc(NS(=O)(=O)[C@@H](C)[C@@H](OC(C)C)c3ncc(C)cn3)n2[C@@H](C)c2ncn(C)n2)n1` (single isomer, unassigned) [Example 233.0, (1S,2S)-N-(5-(6-methoxy-2-pyridinyl)-4-((1S)-1-(1-methyl-1H-1,2,4-triazol-3-yl)ethyl)-4H-1,2,4-triazol-3-yl)-1-(5-methyl-2-pyrimidinyl)-1-(2-propanyloxy)-2-propanesulfonamide or (1S,2S)-N-(5-(6-methoxy-2-pyridinyl)-4-((1R)-1-(1-methyl-1H-1,2,4-triazol-3-yl)ethyl)-4H-1,2,4-triazol-3-yl)-1-(5-methyl-2-pyrimidinyl)-1-(2-propanyloxy)-2-propanesulfonamide], the concentration giving a half-maximal response (EC50) is 10 nM.

Take `COc1cccc(-c2nnc(NS(=O)(=O)[C@@H](C)[C@H](OC)c3ncc(Cl)cn3)n2CCc2ccccn2)n1` [Example 283.0, (1R,2S)-1-(5-chloropyrimidin-2-yl)-1-methoxy-N-(5-(6-methoxypyridin-2-yl)-4-(2-(pyridin-2-yl)ethyl)-4H-1,2,4-triazol-3-yl)propane-2-sulfonamide]: the EC50 stood at 69 nM.

Take `COc1cccc(-c2nnc(NS(=O)(=O)[C@@H](C)[C@@H](OC(C)C)c3ncc(C)cn3)n2[C@@H](C)c2ncc(C)o2)n1` (single isomer, unassigned) [Example 242.0, (1S,2S)-N-(5-(6-methoxy-2-pyridinyl)-4-((1S)-1-(5-methyl-1,3-oxazol-2-yl)ethyl)-4H-1,2,4-triazol-3-yl)-1-(5-methyl-2-pyrimidinyl)-1-(2-propanyloxy)-2-propanesulfonamide or (1S,2S)-N-(5-(6-methoxy-2-pyridinyl)-4-((1S)-1-(5-methyl-1,3-oxazol-2-yl)ethyl)-4H-1,2,4-triazol-3-yl)-1-(5-methyl-2-pyrimidinyl)-1-(2-propanyloxy)-2-propanesulfonamide]: the half-maximal effective concentration (EC50) stood at 13 nM.

Take `COc1cccc(-c2nnc(NS(=O)(=O)[C@@H](C)[C@H](OC)c3cnc(C)cn3)n2C2CC2)n1` [Example 122.0]: the EC50 amounted to 56 nM.

`CCOCCn1c(NS(=O)(=O)[C@@H](C)[C@H](OC)c2ncc(Cl)cn2)nnc1-c1cccc(OC)n1` [Example 22.0, (1R,2S)-1-(5-chloro-2-pyrimidinyl)-N-(4-(2-ethoxyethyl)-5-(6-methoxy-2-pyridinyl)-4H-1,2,4-triazol-3-yl)-1-methoxy-2-propanesulfonamide]: the 50% effective concentration (EC50) was 3.2 nM.

With `COCC1(n2c(NS(=O)(=O)[C@@H](C)[C@H](OC)c3ncc(C)cn3)nnc2-c2ccccn2)CC1` [Example 67.0], the EC50 is 24 nM.

Take `COc1cccc(-c2nnc(NS(=O)(=O)[C@@H](C)[C@@H](OC(C)C)c3ncc(C)cn3)n2[C@@H](C)c2ccon2)n1` (single isomer, unassigned) [Example 270.0, (1S,2S)-1-isopropoxy-N-(4-((R)-1-(isoxazol-3-yl)ethyl)-5-(6-methoxypyridin-2-yl)-4H-1,2,4-triazol-3-yl)-1-(5-methylpyrimidin-2-yl)propane-2-sulfonamide or (1S,2S)-1-isopropoxy-N-(4-((S)-1-(isoxazol-3-yl)ethyl)-5-(6-methoxypyridin-2-yl)-4H-1,2,4-triazol-3-yl)-1-(5-methylpyrimidin-2-yl)propane-2-sulfonamide]: the EC50 amounted to 5.1 nM.
